{"source": "patent US8609858B2", "about": "“Spiro derivatives of parthenin as novel anticancer agents” (Council of Scientific & Industrial Research, priority 2008, dated 2013)", "key": {"PC-3": {"tested_on": "PC-3", "test": "In vitro cytotoxicity screening (sulphodamine B dye), PC-3", "type": "cell-based", "settings": "Homo sapiens; PC-3 prostate cancer cell line", "experimental": "Cells at sub confluent stage were harvested from the flask by treatment with trypsin (0.5% in PBS containing 0.02% EDTA) for determination of cytotoxicity. […] The cell suspensions of required cell density were prepared in complete growth medium with gentamycin (50 μg/ml) for determination of cytotoxicity. The cells (100 μl/well) were inoculated in 96 well tissue culture plates. The cells were allowed to grow for 24 hrs temperature of 37° C. and in a humidified atmosphere of 5% CO2 in air. Stock solution of (20 mM) of test material was prepared in DMSO. The stock solution was serially diluted with complete growth medium containing 50 μg/ml of gentamycin to obtain […] working test solutions of 1., 2, 5, 10, 50 and 100 μM.\nThe media were supplemented with FCS (10%), penicillin (100 Units/ml), streptomycin (100 μg/ml) and glutamine (2 mM) and cells were grown in CO2 incubator (Hera cell, Heraeus, USA) at 37° C. with 90% humidity and 5% CO2."}, "MOLT-4 cells": {"tested_on": "MOLT-4 cells", "test": "DNA cell cycle analysis by flow cytometry", "type": "cell-based, human", "settings": "for Sub G1 population: 24 hrs", "experimental": "Effect of “Compound-17” on DNA content by cell cycle phase distribution was assessed using human leukemia MOLT-4. The MOLT-4 cells (1×10^6 cells/ml) in RPMI-1640 medium were incubated with “Compound-17” (1, 10, 50 and 100 μM) for 24 hrs. The cells were then washed twice with ice-cold PBS, harvested, fixed with ice-cold PBS in 70% ethanol, and stored at −20° C. for 30 min. After fixation, the cells were incubated with RNase A (0.1 mg/ml) at 37° C. for 30 min, stained with propidium iodide (50 μg/ml) for 30 min on ice in dark, and then measured for DNA content using BD-LSR Flow cytometer (Becton Dickinson, USA) equipped with electronic doublet discrimination capability using blue (488 nm) excitation from argon laser. Data were collected in list mode on 10,000 events for FL2-A vs. FL2-W and analyzed (FIG. 3).^3d"}, "[1]": {"tested_on": "Ehrlich Ascites Carcinoma (EAC)", "test": "Anti tumor activity on Ehrlich Ascites Carcinoma (EAC) bearing mice", "type": "in vivo", "settings": "for % Tumor growth inhibition / Ascitic fluid volume (ml) Mean ± SE / Tumor cells in ascitic fluid (×10^7) Mean ± SE: nine days, day 12", "description": "Non-inbred swiss albino mice from an in-house colony were used in the present study. The breeding and experimental animals were housed in standard size polycarbonate cages providing internationally recommended space for each animal. Animals were fed balanced mice feed supplied by MIs Ashirwad Industries, Chandigarh (India) and autoclaved water was available ad libitum. Animals were cared as per the guide for the care and use of laboratory animals (1996), ILAR, Washington D.C. They were housed in controlled conditions of temperature (23±2° C.), humidity (50-60%) and 12:12 hrs of light: dark cycle. The study and the number of animals used were approved by the institutional animal ethics committee, IIIM, Jammu, India. The study was conducted as per the protocols of National Cancer Institute (NCl), USA (Geran et al., 1972).\nEhrlich Ascites Carcinoma (EAC) was propagated by transplanting 1×10^7 cells from an animal bearing 8-10 days old Ehrlich Ascites Carcinoma, into the peritoneal cavity of non-inbreed swiss mice. For testing, mice of the same sex weighing 20 ±3 g bearing ascites tumor were selected. 1×10^7 cells obtained from an animal bearing 8-10 days old ascites tumor were injected into peritoneal cavity of all animals used for testing (0 Day). On next day animals were randomized and divided into test groups (7 animals in each test group) and one tumor control group (10 animals). Test groups were treated with different doses of Parthenin (10 mg/kg, 25 mg/kg and 50 mg/kg) and its derivative Compound-17 (10 mg/kg, 25 mg/kg and 50 mg/kg, 100 mg/kg and 200 mg/kg) suspension in 1% gum acacia in their respective group intraperitonealy for nine consecutive days. Another test group was administered 5 FU @ 20 mg/kg i.p and served as positive control. The tumor control group was similarly administered normal saline (0.2 ml i.p). The percent tumor growth inhibition were measured on day 12 with respect to volume of ascitic fluid and the number of tumor cells in the ascitic fluid of peritoneal cavity (Geran et al., 1972; Singh et al., 2007).\nThe percent tumor growth inhibition was calculated as follow. % growth inhibition=100×(Average no. of cells in control group−Average no. of cells in test group)/Average no. of cells in control group Results: […]"}, "Hep-2": {"tested_on": "Hep-2", "test": "In vitro cytotoxicity screening (sulphodamine B dye), Hep-2", "type": "cell-based", "settings": "Homo sapiens, read-out: cell growth inhibition", "experimental": "Cells at sub confluent stage were harvested from the flask by treatment with trypsin (0.5% in PBS containing 0.02% EDTA) for determination of cytotoxicity. Cells with viability of more than 98%, as determined by trypan blue, were used for assay. The cell suspensions of required cell density were prepared in complete growth medium with gentamycin (50 μg/ml) for determination of cytotoxicity. The cells (100 μl/well) were inoculated in 96 well tissue culture plates. The cells were allowed to grow for 24 hrs temperature of 37° C. and in a humidified atmosphere of 5% CO2 in air. Stock solution of (20 mM) of test material was prepared in DMSO. The stock solution was serially diluted with complete growth medium containing 50 μg/ml of gentamycin to obtain […] working test solutions of 1., 2, 5, 10, 50 and 100 μM. In vitro cytotoxicity (IC50 value) against human cancer cell lines was determined using sulphodamine B dye.^5,6 The results are summarized in table 4.\nThe human Cancer Cell lines were obtained either from National Center for Cell Science, Pune, India or National Cancer Institute, Frederick, U.S.A. The human cancer cell colon: SW-620, prostrate, PC-3, DU-145 and acute lymphoblastic leukemia (MOLT-4) were grown and maintained in RPMI-1640 medium, pH 7.4, HEP-2. […]"}}}
{"smiles": "C[C@H]1CC[C@@H]2[C@@H](OC(=O)C23CC(c2c4ccccc4cc4ccccc24)=NO3)[C@]2(C)C(=O)C=C[C@@]12O", "note": "(some centres unmarked) [Compound -17]", "values": [{"measurement": "IC50", "setting": "PC-3", "result": 4.9, "unit": "µM"}, {"measurement": "Sub G1 population", "setting": "MOLT-4 cells; 1 μM", "result": 6.58, "unit": "%"}, {"measurement": "Sub G1 population", "setting": "MOLT-4 cells; 10 μM", "result": 33.09, "unit": "%"}, {"measurement": "Sub G1 population", "setting": "MOLT-4 cells; 50 μM", "result": 33.2, "unit": "%"}, {"measurement": "blockage of G1 phase of cell cycle", "setting": "MOLT-4 cells; 100 μM", "result": "complete blockage of G1 phase"}, {"measurement": "Sub G1 population", "setting": "MOLT-4 cells; 100 μM", "result": 55, "unit": "%"}, {"measurement": "% Tumor growth inhibition", "setting": "[1]; 10 mg/kg i.p.", "result": 7.74, "unit": "%"}, {"measurement": "Ascitic fluid volume (ml) Mean ± SE", "setting": "[1]; 10 mg/kg i.p.", "result": "4.07 ± 0.35", "unit": "mL"}, {"measurement": "Tumor cells in ascitic fluid (×10^7) Mean ± SE", "setting": "[1]; 10 mg/kg i.p.", "result": "78.42 ± 2.90 ×10^7"}, {"measurement": "% Tumor growth inhibition", "setting": "[1]; 25 mg/kg i.p.", "result": 19.16, "unit": "%"}, {"measurement": "Ascitic fluid volume (ml) Mean ± SE", "setting": "[1]; 25 mg/kg i.p.", "result": "3.62 ± 0.32", "unit": "mL"}, {"measurement": "Tumor cells in ascitic fluid (×10^7) Mean ± SE", "setting": "[1]; 25 mg/kg i.p.", "result": "68.71 ± 3.16 ×10^7"}, {"measurement": "% Tumor growth inhibition", "setting": "[1]; 50 mg/kg i.p.", "result": 27.23, "unit": "%"}, {"measurement": "Ascitic fluid volume (ml) Mean ± SE", "setting": "[1]; 50 mg/kg i.p.", "result": "2.85 ± 0.37", "unit": "mL"}, {"measurement": "Tumor cells in ascitic fluid (×10^7) Mean ± SE", "setting": "[1]; 50 mg/kg i.p.", "result": "61.85 ± 4.20 ×10^7"}, {"measurement": "% Tumor growth inhibition", "setting": "[1]; 100 mg/kg i.p.", "result": 60.50, "unit": "%"}, {"measurement": "Ascitic fluid volume (ml) Mean ± SE", "setting": "[1]; 100 mg/kg i.p.", "result": "2.07 ± 0.33", "unit": "mL"}, {"measurement": "Tumor cells in ascitic fluid (×10^7) Mean ± SE", "setting": "[1]; 100 mg/kg i.p.", "result": "33.57 ± 2.60 ×10^7"}, {"measurement": "mortality of test animals", "setting": "[1]; 200 mg/kg i.p., EAC bearing mice", "result": "All animals died by 3rd day"}, {"measurement": "inhibition at 5 µM", "setting": "Hep-2", "result": 71, "unit": "%"}]}
